In PMC6128263 (Biochemistry, 2018):
Read-outs that look alike come from different tables or passages of the source.

Experiments:
[1] = target: T1, Mtb Rv3802 (Mycobacterium tuberculosis, UniProt O53581); type: biochemical; conditions: 100 μM inhibitor, no preincubation time
[2] = target: T1, Mtb Rv3802; test: biochemical; type: biochemical
[3] = target: T2, Mtb Pks13-TE (Mycobacterium tuberculosis, UniProt I6X8D2); test: Initial inhibition screen, Pks13-TE activity assay; type: biochemical
[4] = target: T3, Mtb Ag85C (Mycobacterium tuberculosis, UniProt P9WQN9); test: Initial inhibition screen, Ag85C activity assay; type: biochemical; conditions: for inhibition level of Ag85C: 100 μM inhibitor, 0 min preincubation, compared to the uninhibited control
T3 sequence (P9WQN9 46-340): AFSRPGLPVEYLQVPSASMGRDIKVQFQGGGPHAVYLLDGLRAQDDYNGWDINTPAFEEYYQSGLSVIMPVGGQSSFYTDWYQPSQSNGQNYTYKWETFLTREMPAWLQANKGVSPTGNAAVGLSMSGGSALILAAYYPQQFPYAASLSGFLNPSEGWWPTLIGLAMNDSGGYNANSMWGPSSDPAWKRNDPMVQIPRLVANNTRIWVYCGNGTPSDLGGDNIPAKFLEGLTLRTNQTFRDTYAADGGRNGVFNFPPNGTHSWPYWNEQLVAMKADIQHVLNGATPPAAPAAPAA

[5] = target: T3, Mtb Ag85C; test: Ag85C kinact/KI determination; type: biochemical
[6] = target: T2, Mtb Pks13-TE; test: Pks13-TE reversible covalent inhibition and influence of trehalose; type: biochemical
[7] = system: Mtb strain H37Rv; conditions: cited from earlier work
[8] = system: Rv3802; conditions: THL to Rv3802, cited from earlier work
[9] = system: OC[C@H]1O[C@H](O[C@H]2O[C@H](CO)[C@@H](O)[C@H](O)[C@H]2O)[C@H](O)[C@@H](O)[C@@H]1O; test: purified protein, by the assay type; conditions: other: Pks13-TE, acyl transfer from 4MH to trehalose; pH 7.5; 37.0 °C
[10] = 20 nM Rv3802, linear rates from 2 to 6 min, no preincubation
[11] = read-out: increase in inhibition level of Pks13-TE from 0 to 3 h
[12] = read-out: inhibition level of Pks13-TE at 4 h (decreased to)

T1 sequence (O53581 whole entry): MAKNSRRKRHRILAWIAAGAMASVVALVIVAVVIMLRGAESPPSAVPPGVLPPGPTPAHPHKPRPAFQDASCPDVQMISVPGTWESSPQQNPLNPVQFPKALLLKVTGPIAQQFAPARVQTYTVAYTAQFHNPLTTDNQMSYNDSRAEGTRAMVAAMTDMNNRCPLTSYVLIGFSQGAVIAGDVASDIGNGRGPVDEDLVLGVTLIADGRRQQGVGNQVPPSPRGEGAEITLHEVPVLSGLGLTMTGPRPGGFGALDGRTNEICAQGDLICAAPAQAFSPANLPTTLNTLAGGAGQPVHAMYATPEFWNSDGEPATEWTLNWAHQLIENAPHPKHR
T2 sequence (I6X8D2 1451-1733 limits assumed): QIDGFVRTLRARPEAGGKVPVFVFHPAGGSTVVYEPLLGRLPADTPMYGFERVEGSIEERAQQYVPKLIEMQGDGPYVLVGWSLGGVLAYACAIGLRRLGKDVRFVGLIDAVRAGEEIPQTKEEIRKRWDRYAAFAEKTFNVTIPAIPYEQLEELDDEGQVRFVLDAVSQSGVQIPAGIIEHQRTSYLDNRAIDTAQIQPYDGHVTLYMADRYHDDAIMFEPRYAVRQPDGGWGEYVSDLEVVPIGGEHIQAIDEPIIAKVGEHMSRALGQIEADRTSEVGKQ

CCCCCCCCCCCC(CC1OC(=O)C1CCCCCC)OC(=O)C(CC(C)C)NC=O (single isomer, unassigned; ent1) [ent1-THL]
inhibition level of Rv3802 ([1]; 100 µM): 85.1 ± 1.4%
EC50 [2, 10]: 15900 ± 1000 nM

CCCCCCCCCCC[C@H](C[C@H]1OC(=O)[C@@H]1CCCCCC)OC(=O)[C@H](CC(C)C)NC=O (single isomer, unassigned; ent2) [ent2-THL]
inhibition level of Rv3802 [1]: 83.9 ± 0.6%
Pks13-TE activity remaining ([3]; 100 μM inhibitor, 1 h preincubation, compared to uninhibited reactions): ~ 30%
EC50 [2, 10]: 15900 ± 1100 nM

CCCCCCCCCCCC(CC1OC(=O)C1CCCCCC)OC(=O)C(CC(C)C)NC=O (single isomer, unassigned; ent3) [ent3-THL]
inhibition level of Rv3802 ([1]; 100 µM): 83.0 ± 2.9%
EC50 [2, 10]: 16600 ± 900 nM

CCCCCCCCCCCC(CC1OC(=O)C1CCCCCC)OC(=O)C(CC(C)C)NC=O (single isomer, unassigned; ent4) [ent4-THL]
inhibition level of Rv3802 ([1]; 100 µM): 79.0 ± 1.7%
EC50 [2, 10]: 62100 ± 4100 nM

CCCCCCCCCCC[C@H](C[C@@H]1OC(=O)[C@H]1CCCCCC)OC(=O)[C@@H](CC(C)C)NC=O [2′,5-epi-THL]
inhibition level of Rv3802 [1]: completely inhibit
EC50 [2, 10]: 28.7 ± 3.1 nM

CCCCCCCCCCC[C@@H](C[C@@H]1OC(=O)[C@H]1CCCCCC)OC(=O)[C@@H](CC(C)C)NC=O [2′-epi-THL]
inhibition level of Ag85C [4]: 35.8 ± 2.2%
inhibition level of Rv3802 [1]: completely inhibit
fold lower binding affinity (KI) compared to THL ([5]; Ag85C): ~ 4.5 fold
fold lower kinact/KI value compared to THL ([5]; Ag85C): ~ 4 fold
kinact/KI ([5]; Ag85C, inhibitor 300 to 12.5 μM, 40 min progress curves): 1.1 ± 0.3 × 10^−3 μM^−1 min^−1
EC50 [2, 10]: 9.2 ± 0.5 nM

CCCCCCCCCCC[C@H](C[C@@H]1OC(=O)[C@H]1CCCCCC)OC(=O)[C@H](CC(C)C)NC=O [5-epi-THL]
inhibition level of Ag85C [4]: 12.3 ± 2.6%
inhibition level of Rv3802 [1]: completely inhibit
EC50 [2, 10]: 12.6 ± 1.2 nM

CCCCCCCCCCC[C@@H](C[C@@H]1OC(=O)[C@H]1CCCCCC)OC(=O)[C@H](CC(C)C)NC=O [THL, Tetrahydrolipstatin]
inhibition at 100 µM ([4]; read-out: inhibition level of Ag85C): 31.8 ± 5.9%
inhibition level of Rv3802 [1]: completely inhibit
inhibition at 100 µM ([3]; read-out: inhibition level of Pks13-TE): 50 to 60%
kinact/KI [5]: 70 M⁻¹ s⁻¹
EC50 [2]: 16.2 ± 0.8 nM
retention of covalent coupling with THL, fold longer than Rv3802 ([6]; Pks13-TE versus Rv3802): at least 10 fold
slowing of the rate of inactivation of Pks13-TE by presence of trehalose ([6]; THL inhibition with versus without trehalose): 48 ± 6.7%
inhibition at 12.5 µM [6, 11]: 62.3 ± 5%
inhibition at 25 µM [6, 11]: 61.8 ± 3.5%
inhibition at 50 µM [6, 11]: 44.1 ± 3.5%
inhibition at 12.5 µM [6, 12]: 15.2 ± 1.4%
inhibition at 25 µM [6, 12]: 11.6 ± 0.4%
inhibition at 50 µM [6, 12]: 16 ± 2.1%
minimum inhibitory concentration (MIC) [7]: ~ 15 μM
IC50 [8]: low micromolar
Ki ([8]; read-out: apparent KI): 5 nM

Mtb Pks13-TE (Mycobacterium tuberculosis H37Rv)
Km [9]: 56.6 ± 7.9 mM
